How the values were obtained:
[1] = test system: phosphorylated MARCKS in human sperm; experiment: Phosphorylated MARCKS level in stimulated sperm by Western blot (anti-phospho-MARCKS); assay type: cell-based; details: non-permeabilized capacitated sperm; 100 µM 2-APB 15 min, then 20 min 10 µM A23187, 200 nM PMA or 15 µM progesterone; normalized against β-tubulin; three experiments
Description: To examine the presence of MARCKS and phosphorylated MARCKS, the fraction of motile sperm capacitated for 2–3 h in BSA supplemented-HTF medium was used. After removing the HTF by washing cells twice with cold PBS, sperm pellets were resuspended in sample buffer (2% SDS, 10% glycerol, and 62.5 mM Tris-HCl pH 6.8) without disulfide reducing agents. Proteins were extracted by heating three times to 95°C for 4 min each. Extracts were centrifuged (12,000×g) for 10 min, and the supernatants were adjusted to 5% β-mercaptoethanol. Protein were resolved on 10% polyacrylamide gels according to [23], and transferred to PVDF membranes (Millipore). Non-specific reactivity was blocked by incubation for 1 h at room temperature (RT) with 5% skim milk dissolved in tris-buffered saline with 0.1% Tween-20 (T-TBS: 50 mM Tris-HCl pH 7.4, 150 mM NaCl, 0.1% Tween-20). Blots were incubated with primary anti-MARCKS antibody from Abcam (0.26 µg/ml), anti-MARCKS N-19 from Santa Cruz (0.13 µg/ml), or anti-phospho-MARCKS (0.06 µg/ml), in blocking solution overnight at 4°C. Biotinylated, goat anti-mouse-IgG (0.076 µg/ml), biotinylated, rabbit anti-goat-IgG (0.4 µg/ml) or biotinylated, goat anti-rabbit-IgG (0.076 µg/ml) were used as secondary antibodies during 60 min incubations at RT. Blots were then incubated with peroxidase-conjugated streptavidin (0.17 µg/ml) during 60 min incubations at RT. Excess first and second antibodies, and peroxidase-conjugated streptavidin were removed by washing five times for 10 min each in T-TBS. For loading control blots were reprobed with anti-β-tubulin. […]
Figure 5 Assessing MARCKS function on acrosomal exocytosis in non-permeabilized sperm. […] The increase in fluorescence is expressed as (F/F0)-1 ((maximum fluorescence intensity/initial fluorescence)-1) versus time in seconds. […] (D) Quantification of three independent experiments. […] Phosphorylated MARCKS was detected by Western blot assay using an anti-phospho-MARCKS antibody. […]

[2] = test system: acrosomal exocytosis in permeabilized human sperm; experiment: Acrosomal exocytosis assay in SLO-permeabilized human sperm (FITC-PSA lectin staining); assay type: cell-based; details: 1 µM MARCKS ED 15 min, then 50 µM PIP2 or 5 µM adenophostin, then 10 µM free Ca2+ or 200 nM PMA
Description: Acrosomal exocytosis assays were performed as previously described. Briefly, human semen obtained from normal healthy donors was allowed to liquefy for 30-60 min at 37°C. We used a swim-up protocol to isolate highly motile sperm under capacitating conditions in Human Tubal Fluid media (HTF, as formulated by Irvine Scientific, Santa Ana, CA) supplemented with 0.5% bovine serum albumin (BSA) for 1 h at 37°C in an atmosphere of 5% CO2/95% air. Sperm concentrations were adjusted to 5–10×10^6 cells/ml and incubated for at least 2 h under capacitating conditions. We have shown previously that human sperm incubated under these conditions are responsive to progesterone. […] Acrosomal status was evaluated by staining with FITC-coupled Pisum sativum agglutinin (FITC-PSA) according to [21]. At least 200 cells were scored using a Nikon Optiphot II microscope equipped with epifluorescence optics. […] For each experiment, acrosomal exocytosis indexes were calculated by subtracting the number of reacted spermatozoa in the negative control (range 10%–30%) from all values, and expressing the resulting values as a percentage of the acrosome exocytosis observed in the positive control (range 25%–40%). […] Data were evaluated using one-way ANOVA and post hoc tests (Dunnett's test or confident intervals). […]

Compound	increase of phosphorylated MARCKS [1]	rescue of MARCKS ED inhibition of acrosomal exocytosis [2]
CC(=O)[C@H]1CC[C@H]2[C@@H]3CCC4=CC(=O)CC[C@]4(C)[C@H]3CC[C@]12C [progesterone]	40%	
Phosphatidylinositol 4, 5-bisphosphate [PIP2]		able to recover the MARCKS ED inhibition
Nc1ncnc2c1ncn2[C@@H]1O[C@H](CO)[C@@H](O[C@H]2O[C@H](CO)[C@@H](OP(=O)(O)O)[C@H](OP(=O)(O)O)[C@H]2O)[C@H]1OP(=O)(O)O [adenophostin, Adenophostin A]		rescued exocytosis impaired by MARCKS ED
CNc1ccc2oc(C[C@H]3O[C@@]4(CC[C@H]3C)O[C@H]([C@H](C)C(=O)c3ccc[nH]3)[C@H](C)C[C@H]4C)nc2c1C(=O)O [A23187]	50%	
CCCCCCCCCCCCCC(=O)O[C@@H]1[C@@H](C)[C@@]2(O)[C@@H](C=C(CO)C[C@]3(O)C(=O)C(C)=C[C@@H]23)[C@@H]2C(C)(C)[C@]12OC(C)=O [PMA, phorbol 12-myristate 13-acetate]	60%	

From PMC3660367, “MARCKS Protein Is Phosphorylated and Regulates Calcium Mobilization during Human Acrosomal Exocytosis” (PLoS ONE, 2013)
